Experimental data from ChEMBL document CHEMBL1126236, “Synthesis and muscarinic receptor activity of ester derivatives of 2-substituted 2-azabicyclo[2.2.1]heptan-5-ol and -6-ol” (J Med Chem, 1992).

Each compound was assayed against Muscarinic acetylcholine receptor (assay: Inhibition of [3H]QNB binding to muscarinic receptor of rat brain membrane preparation.).

In order of falling Ki:
1. CC(=O)O[C@@H]1CC2CC1N(Cc1ccccc1)C2 (stereo partly specified)  20 µM
2. CC(=O)OC1CC2CC1N(C)C2 (stereo unspecified)  17.5 µM
3. CC(=O)OC1CC2CC1CN2Cc1ccccc1 (stereo unspecified)  14.8 µM
4. CC(=O)O[C@@H]1CC2CC1CN2C (stereo partly specified)  11.5 µM
5. CC(=O)O[C@H]1CC2CC1CN2C (stereo partly specified)  9.84 µM
6. CC(=O)O[C@H]1CC2CC1N(Cc1ccccc1)C2 (stereo partly specified)  6.63 µM

What follows are compounds tested against T1, Muscarinic acetylcholine receptor M3 (Rattus norvegicus, UniProt P08483) (assay: Inhibition of [3H]QNB binding to m3 receptor transfected with CHO cell).
Format: cell-based

T1 sequence (P08483 whole entry): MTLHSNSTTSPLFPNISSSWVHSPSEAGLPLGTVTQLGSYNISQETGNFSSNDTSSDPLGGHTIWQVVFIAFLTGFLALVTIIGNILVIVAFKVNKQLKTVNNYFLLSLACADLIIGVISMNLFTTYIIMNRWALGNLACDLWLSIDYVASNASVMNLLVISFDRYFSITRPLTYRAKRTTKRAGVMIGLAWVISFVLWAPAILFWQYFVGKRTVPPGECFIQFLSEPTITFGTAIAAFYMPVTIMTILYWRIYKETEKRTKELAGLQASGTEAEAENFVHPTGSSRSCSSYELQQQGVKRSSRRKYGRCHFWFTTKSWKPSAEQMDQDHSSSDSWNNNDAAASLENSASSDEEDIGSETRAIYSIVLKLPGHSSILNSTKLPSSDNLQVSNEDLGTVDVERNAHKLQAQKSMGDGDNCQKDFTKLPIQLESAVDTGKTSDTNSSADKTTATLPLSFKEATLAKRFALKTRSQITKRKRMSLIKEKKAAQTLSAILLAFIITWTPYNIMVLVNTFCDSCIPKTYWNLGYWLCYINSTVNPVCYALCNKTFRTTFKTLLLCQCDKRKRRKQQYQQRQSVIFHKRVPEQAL

`CC(=O)O[C@H]1CC2CC1N(Cc1ccccc1)C2` (stereo partly specified) gave a Ki of 18.8 µM.

The compounds below were run against Muscarinic acetylcholine receptor (assay: Inhibition of [3H]QNB binding to muscarinic receptor of rat heart membrane preparation.).

In order of rising Ki:
1. CN1CC2CC1C[C@H]2OC(=O)C(C)(c1ccccc1)c1ccccc1 (stereo partly specified)  0.00118 µM
2. CN1CC2CC1C[C@@H]2OC(=O)C(C)(c1ccccc1)c1ccccc1 (stereo partly specified)  0.00407 µM
3. CC(=O)O[C@H]1CC2CC1CN2C (stereo partly specified)  10.1 µM
4. CC(=O)OC1CC2CC1CN2Cc1ccccc1 (stereo unspecified)  10.3 µM
5. CC(=O)O[C@H]1CC2CC1N(Cc1ccccc1)C2 (stereo partly specified)  15.1 µM
6. CC(=O)O[C@@H]1CC2CC1N(Cc1ccccc1)C2 (stereo partly specified)  15.3 µM
7. CC(=O)O[C@@H]1CC2CC1CN2C (stereo partly specified)  17.4 µM
8. CC(=O)OC1CC2CC1N(C)C2 (stereo unspecified)  24.9 µM

These compounds were tested against T1, Muscarinic acetylcholine receptor M3 (assay: Inhibition of [3H]QNB binding to Muscarinic acetylcholine receptor M3 transfected with CHO cell).
Format: cell-based

In order of rising Ki:
1. CN1CC2CC1C[C@H]2OC(=O)C(C)(c1ccccc1)c1ccccc1 (stereo partly specified)  0.000522 µM
2. CN1CC2CC1C[C@@H]2OC(=O)C(C)(c1ccccc1)c1ccccc1 (stereo partly specified)  0.000533 µM
3. CC(=O)O[C@H]1CC2CC1CN2C (stereo partly specified)  12 µM
4. CC(=O)OC1CC2CC1CN2Cc1ccccc1 (stereo unspecified)  26.9 µM
5. CC(=O)O[C@@H]1CC2CC1CN2C (stereo partly specified)  27.7 µM
6. CC(=O)OC1CC2CC1N(C)C2 (stereo unspecified)  28 µM
7. CC(=O)O[C@@H]1CC2CC1N(Cc1ccccc1)C2 (stereo partly specified)  47.6 µM

What follows are compounds tested against T2, Muscarinic acetylcholine receptor M1 (Rattus norvegicus, UniProt P08482) (assay: Inhibition of [3H]QNB binding to Muscarinic acetylcholine receptor M1 transfected with CHO cell).
T2 sequence (P08482 whole entry): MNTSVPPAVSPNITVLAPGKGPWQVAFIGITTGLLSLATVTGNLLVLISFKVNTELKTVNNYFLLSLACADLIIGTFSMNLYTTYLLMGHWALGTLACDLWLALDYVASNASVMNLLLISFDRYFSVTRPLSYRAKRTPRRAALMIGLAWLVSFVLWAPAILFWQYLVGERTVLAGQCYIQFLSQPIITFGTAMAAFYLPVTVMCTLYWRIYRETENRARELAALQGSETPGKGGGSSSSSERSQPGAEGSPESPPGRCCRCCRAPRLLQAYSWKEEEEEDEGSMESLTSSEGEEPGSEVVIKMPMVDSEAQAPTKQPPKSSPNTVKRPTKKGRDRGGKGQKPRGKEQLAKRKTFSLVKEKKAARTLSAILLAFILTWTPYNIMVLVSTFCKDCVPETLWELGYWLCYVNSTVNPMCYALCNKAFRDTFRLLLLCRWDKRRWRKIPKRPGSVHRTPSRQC
Format: cell-based

In order of rising Ki:
1. CN1CC2CC1C[C@H]2OC(=O)C(C)(c1ccccc1)c1ccccc1 (stereo partly specified)  0.000423 µM
2. CN1CC2CC1C[C@@H]2OC(=O)C(C)(c1ccccc1)c1ccccc1 (stereo partly specified)  0.000876 µM
3. CC(=O)O[C@@H]1CC2CC1N(Cc1ccccc1)C2 (stereo partly specified)  2.26 µM
4. CC(=O)O[C@H]1CC2CC1N(Cc1ccccc1)C2 (stereo partly specified)  7.01 µM
5. CC(=O)O[C@H]1CC2CC1CN2C (stereo partly specified)  17.5 µM
6. CC(=O)OC1CC2CC1CN2Cc1ccccc1 (stereo unspecified)  18.9 µM
7. CC(=O)OC1CC2CC1N(C)C2 (stereo unspecified)  21.6 µM
8. CC(=O)O[C@@H]1CC2CC1CN2C (stereo partly specified)  21.9 µM

These compounds were tested against Muscarinic acetylcholine receptor (assay: Inhibition of [3H]- Oxo-M binding to muscarinic receptor of rat brain membrane preparations).

In order of rising Ki:
1. CC(=O)O[C@H]1CC2CC1CN2C (stereo partly specified)  0.23 µM
2. CC(=O)O[C@@H]1CC2CC1CN2C (stereo partly specified)  1.43 µM
3. CC(=O)OC1CC2CC1CN2Cc1ccccc1 (stereo unspecified)  1.56 µM
4. CC(=O)O[C@@H]1CC2CC1N(Cc1ccccc1)C2 (stereo partly specified)  2.57 µM
5. CC(=O)OC1CC2CC1N(C)C2 (stereo unspecified)  5.37 µM
6. CC(=O)O[C@H]1CC2CC1N(Cc1ccccc1)C2 (stereo partly specified)  7.21 µM
